Measured values as given in patent publication US20230131929A1, “QUINOLINE COMPOUNDS FOR TREATING RESPIRATORY DISORDERS AND VIRAL INFECTIONS” (Aldeyra Therapeutics, Inc., priority 2020, published 2023).

Tests used:
[1] = dextran sulfate sodium (DSS)-induced mouse model of UC; type: in vivo
Description: (§1) These cytokines and chemokines affect Th1, Th2, and Th17 pathways, all of which are important in immune homeostasis and disease (Kaiko et al., Immunology 123:326-338, 2007. DOI 10.1111/j.1365-2567.2007.02719.x.; Weaver et al., Annu. Rev. Pathol 8:477-512, 2013. DOI 10.1146/annurev-pathol-011110-130318).

[2] = rodent models of NASH; type: in vivo; settings: three different rodent models of NASH
Description: as §1

[3] = system: inflammatory cytokines and chemokines; assay: LPS-induced mouse model of acute sepsis, plasma cytokine profile; type: in vivo; settings: for IL-10 plasma level, significance of effect: anti-inflammatory cytokine, release facilitated
Experimental: FIG. 4 and FIG. 5 show the effect of compound I-1 on levels of various inflammatory cytokines in a preclinical sepsis model. In the study, lipopolysaccharide (LPS) was administered IP to mice. 30 minutes later, I-1 was administered IP or PO. Mice were sacrificed after 2 hours, and their plasma submitted for cytokine profile analysis. IP=intraperitoneally; PO=orally; mpk=mg per kg. […]
FIG. 4 and FIG. 5 show the effect of compound I-1 on levels of various inflammatory cytokines in a preclinical sepsis model. In the study, lipopolysaccharide (LPS) was administered IP to mice. 30 minutes later, I-1 was administered IP or PO. Mice were sacrificed after 2 hours, and their plasma submitted for cytokine profile analysis. IP=intraperitoneally; PO=orally. As shown in the table below, I-1 decreased several pro-inflammatory cytokines. * P≤0.05; ** P≤0.01; *** P≤0.001; **** P≤0.0001.

[4] = clinical trials; cited from earlier work
[5] = system: leukocyte migration; assay: LPS-induced acute lung injury model (preclinical ARDS model); type: in vivo; settings: administered IP
Description: In the bottom panel, the effect of test compounds on leukocyte migration is shown in the model. […] Free RASP are toxic, leading to inflammation and molecular dysfunction by covalently binding to cellular biomolecules, and have been linked to systemic immune-mediated and inflammatory diseases, such as NASH, inflammatory bowel disease (IBD), and other diseases. […]

[6] = 100 mpk IP 30 min after LPS IP, mice, plasma after 2 hours
[7] = 400 mpk PO 30 min after LPS IP, mice, plasma after 2 hours
[8] = LPS-induced mouse model of acute sepsis
[9] = LPS-induced acute lung injury model

With `CC(C)(O)c1nc2ccccc2cc1N` [I-1] the “disease parameters (body weight loss, disease activity score, colon length, colon edema, colon inflammation)” value [1] was “improved several disease parameters”, the “circulating markers of liver function and inflammation (liver inflammation, steatosis, hepatocyte ballooning, fibrosis)” value [2] was “may have beneficial effects” and the “GM-CSF plasma level, significance of effect” value [3, 6] was “* (* P≤0.05)”. For the same compound, the “IFNγ plasma level, significance of effect” value [3, 6] was “*** (*** P≤0.001)”, the “IL-1β plasma level, significance of effect” value [3, 6] was “** (** P≤0.01)” and the “IL-5 plasma level, significance of effect” value [3, 6] was “**** (**** P≤0.0001)”. The “IL-7 plasma level, significance of effect” value [3, 6] was “** (** P≤0.01)”, the “IL-12 (p40) plasma level, significance of effect” value [3, 6] was “*** (*** P≤0.001)” and the “IL-17 plasma level, significance of effect” value [3, 6] was “** (** P≤0.01)”. The “M-CSF plasma level, significance of effect” value [3, 6] was “* (* P≤0.05)”, the “MIP-1α plasma level, significance of effect” value [3, 6] was “** (** P≤0.01)” and the “MIP-1β plasma level, significance of effect” value [3, 6] was “** (** P≤0.01)”. The “MIP-2 plasma level, significance of effect” value [3, 6] was “** (** P≤0.01)”, the “TNFα plasma level, significance of effect” value [3, 6] was “* (* P≤0.05)” and the “VEGF plasma level, significance of effect” value [3, 6] was “* (* P≤0.05)”. For the same compound, the “IL-10 plasma level, significance of effect” value [3, 6] was “** (** P≤0.01)”, the “IFNγ plasma level, significance of effect” value [3, 7] was “*** (*** P≤0.001)” and the “IL-1β plasma level, significance of effect” value [3, 7] was “** (** P≤0.01)”. The “IL-5 plasma level, significance of effect” value [3, 7] was “**** (**** P≤0.0001)”, the “IL-7 plasma level, significance of effect” value [3, 7] was “* (* P≤0.05)” and the “IL-12 (p40) plasma level, significance of effect” value [3, 7] was “**** (**** P≤0.0001)”. For the same compound, the “IL-15 plasma level, significance of effect” value [3, 7] was “** (** P≤0.01)”, the “IL-17 plasma level, significance of effect” value [3, 7] was “* (* P≤0.05)” and the “M-CSF plasma level, significance of effect” value [3, 7] was “*** (*** P≤0.001)”. The “MCP-1 plasma level, significance of effect” value [3, 7] was “** (** P≤0.01)”, the “MIP-1α plasma level, significance of effect” value [3, 7] was “* (* P≤0.05)” and the “MIP-1β plasma level, significance of effect” value [3, 7] was “* (* P≤0.05)”. The “IL-10 plasma level, significance of effect” value [3, 7] was “** (** P≤0.01)”, the “release of inflammatory cytokines and chemokines” value [3, 8] was “inhibit the release” and the “release of the anti-inflammatory cytokine interleukin (IL)-10” value [3, 8] was “facilitate the release”.

In the case of `CC(C)(O)c1nc2ccc(Cl)cc2cc1N` [I-2, reproxalap], the “effect in treating ocular inflammation” value [4] is given as “beneficial effects”, the infiltrating cells [5, 9] is given as “decreased infiltrating cells” and the lung function [5, 9] is given as “improved lung function”. For the same compound, the “activity in LPS-induced acute lung injury model” value ([5]; compared with saline and dexamethasone) was “promising activity”.
